US20260256741A1, “ANTICANCER MALEIMIDE DERIVATIVES FOR USE WITH IMMUNE CHECKPOINT BLOCKADE” (BROWN UNIVERSITY, priority 2022, published 2026)

What was measured:
Assay type in all cases: cell-based, human
[1] = tested on: SW480 tumor cells; test: Multicolor co-culture of SW480 tumor cells and donor-derived CD8+ T cells, EthD-1 dead cells; conditions: for percentage of dead cells (average, normalized): then co-culture with donor-derived CD8+ T cells; for percentage of dead cells out of total cells (average, normalized): co-culture with donor-derived CD8+ T cells, 24 hours
Procedure: An Easy Step Human CD8+ T Cell Isolation Kit was used to isolate CD8+ T cells from a donor PBMC sample via negative selection (Cat #, 17913, Stem Cell Technologies, Vancouver, Canada).
10,000 HCT-116, SW480, or HT-29 cells were plated per well in a clear-bottom, black-walled 48-well tissue culture plate and were allowed to adhere overnight. Cells were subsequently treated with DMSO, 5 μM or 10 μM elraglusib, and/or 10,000 TALL-104 or NK-92 cells (for an effector-to-tumor ratio of 1:1) for 24 hours. CRC cells were labeled using CellTracker™ Green CMFDA (5-chloromethylfluorescein diacetate), immune cells (NK-92, TALL-104) were labeled using CellTracker™ Blue CMAC Dye (7-amino-4-chloromethylcoumarin), and ethidium homodimer-1 (EthD-1) was used as a marker of cell death (Invitrogen, Waltham, MA). 10× images were captured using a Nikon Ti-U Inverted Fluorescence Microscope and NIS-Elements F Package imaging software 3.22.00 Build 710 (Nikon Instruments Inc, USA). The number of red/green color cells in random fields was determined using thresholding and particle analysis in the Fiji modification (RRID: SCR_002285) of ImageJ and expressed as a dead/live cell ratio. Normalization was carried out by subtracting the percentage of cell death due to drug or vehicle control (DMSO) only from the percentage of dead cells observed in the co-culture of tumor and immune cells treated with the drug. At least 100 cells were evaluated per sample, with 3 independent replicates. Statistical analysis was done using GraphPad Prism 9 (RRID: SCR_002798).

[2] = tested on: HCT 116 GFP+ cells; test: Single-color GFP+ immune cell co-culture, HCT 116; conditions: 48 hours
Procedure: 50,000 HT-29 or HCT 116 cells were seeded in a 12-well tissue culture plate and allowed to adhere overnight. They were then transduced with lentivirus containing the plasmid pLenti_CMV_GFP_Hygro [pLenti CMV GFP Hygro (656-4) was a gift from Eric Campeau & Paul Kaufman (Addgene viral prep #17446-LV; RRID: Addgene_17446)] at a multiplicity of infection of 10 with 8 μg/mL polybrene (hexadimethrine bromide [Cat #107689, Sigma Aldrich, St. Louis, MO, USA) for 24 hours before washing with PBS and replacing with fresh medium (49). The cells were then sorted for GFP-positivity using a BD FACSAria™ III Cell Sorter (RRID: SCR_016695).
5000 HT-29 GFP+ or HCT 116 GFP+ cells were plated per well in a clear-bottom, black-walled 96-well tissue culture plate and were allowed to adhere overnight. Cells were subsequently treated with DMSO, 5 μM elraglusib, and/or 5000 TALL-104 or NK-92 cells (for an effector-to-tumor ratio of 1:1) for 48 hours. Nine images were taken per well at 10× magnification using a Molecular Devices ImageXpress® Confocal HT.ai High-Content Imaging System and quantified for the number of GFP+ objects using the MetaXpress (RRID: SCR_016654) software (Molecular Devices, San Jose, CA, USA). 40× Images were also taken at 24 hours for representative images of cellular morphology changes. Statistical analysis was done using GraphPad Prism 9 (RRID: SCR_002798).

[3] = tested on: HT-29 CRC cells; test: Western blot analysis of HT-29 CRC cells
Procedure: Recombinant Human TNF-α (Cat #300-01A, PeproTech, Rocky Hill, NJ, USA) and Recombinant Human IFN-γ (Cat #300-02, Peprotech, Rocky Hill, NJ, USA) were purchased for use in western blot analysis while rhTRAIL was generated in-house. Kim et al., J Biol Chem., 279(38):40044-52 (2004).
(§1) Cells were plated in a 6-well plate and incubated overnight before the spent media was replaced with drugged media. Drug treatment lasted for indicated durations. Protein was extracted using radioimmunoprecipitation (RIPA) assay buffer (Cat #R0278, Sigma-Aldrich, St. Louis, MO) containing cOmplete™, Mini, EDTA-free Protease Inhibitor Cocktail (Cat #4693159001, Roche, Basel, Switzerland) from sub-confluent cells. Denaturing sample buffer was added, samples were boiled at 95 degrees for 10 minutes, and an equal amount of protein lysate was electrophoresed through NuPAGE™ 4 to 12%, Bis-Tris, 1.5 mm, Mini Protein Gels (Invitrogen, Waltham, MA) then transferred to PVDF membranes. The PVDF membrane was blocked with 5% non-fat milk (Sigma-Aldrich, St. Louis, MO) in 1×TTBS. Primary antibodies were incubated with the transferred PVDF membrane in blocking buffer at 4° C. overnight. Secondary antibodies used included Goat anti-Rabbit IgG (H+L) Secondary Antibody, HRP (Cat #31460, Invitrogen, Waltham, MA), and Goat anti-Mouse IgG (H+L) Secondary Antibody, HRP (Cat #31430, Invitrogen, Waltham, MA). Signal was detected using Pierce™ ECL Western Blotting Substrate (Cat #32106, Thermo Scientific, Waltham, MA, USA) and a Syngene Imaging System (RRID: SCR_015770).

[4] = tested on: TALL-104 cells; test: Western blot analysis of TALL-104 immune cells
Procedure: as §1

[5] = especially at later timepoints (48, 72 hr)
[6] = as treatment duration increased (0-72 hours)
[7] = immune cell lysates, cell line not given, 0-72 hours

Question: Which results are given for `Cn1cc(C2=C(c3coc4ccc(F)cc34)C(=O)NC2=O)c2cc3c(cc21)OCO3` [elraglusib, 3-(5-fluorobenzofuran-3-yl)-4-(5-methyl-5H-[1,3]dioxolo[4,5-f]indol-7-yl)-1H-pyrrole-2,5-dione]?
Answer: percentage of dead cells (average, normalized) ([1]; 10 μM for 24 hours): 70%; percentage of dead cells out of total cells (average, normalized) ([1]; 5 μM): 65%; percentage of dead cells out of total cells (average, normalized) ([1]; 10 μM): 75%; tumor cell death in SW480 monocultures ([1]; drug only, no immune cells): limited tumor cell death; percentage of dead cells (average, normalized) ([1]; tumor cells pre-treated with 5 μM for 24 hours): 65%; tumor cell death ([2]; 5 μM elraglusib and NK-92 cells vs drug-only or immune cell-only): increased tumor cell death; GFP+ cells per low-powered field ([2]; 5 μM elraglusib only vs DMSO only control): significant decrease; number of GFP+ cells per field ([2]; TALL-104 and 5 μM elraglusib vs TALL-104 only): significant decrease; NF-κB p65 expression ([3]; as the 0-72 hour time-course progressed): decreased expression; PD-L1 expression ([3]; as the treatment duration increased (0-72 hours)): increases in PD-L1 expression; Bcl-2 protein expression [3, 5]: decreases in protein expression; Survivin protein expression [3, 5]: decreases in protein expression; cleaved PARP (cPARP) ([3]; low dose as in co-culture assays, until the 48-hour timepoint of 72-hour timecourse): little to no cleaved PARP; NF-κB protein [4, 6]: did not notice significant changes; survival protein Bcl-2 [4, 6]: did not notice significant changes; NF-κB-inducing kinase (NIK) [4, 7]: increases; survival protein Survivin [4, 7]: increases
